Results as given in patent US11358931B2, “Selective androgen receptor modulators (SARMs) and uses thereof” (priority 2007, dated 2022).
Read-outs that look alike come from different tables or passages of the source.

Key:
[1] = Pharmacokinetics in Sprague Dawley rats, repeat oral administration for 15 days; assay type: in vivo, rat; settings: for AUC(0-inf) / Cmax / Tmax / half-life / AUC: Sprague-Dawley, rat, plasma, po, SD rats; for AUC: read-out: AUC24
Procedure: The pharmacokinetics of Compound 102 following repeat oral administration for 15 days was evaluated in Sprague-Dawley rats. A total of 30 rats (15 males and 15 females) were divided into three dose groups (5 males/5 females). Compound 102 was suspended in a vehicle of 2% […]: 0.5% carboxymethyl cellulose (high viscosity) (50:50, v/v) at concentrations of 0.25, 0.75 and 2.5 mg/mL and animals were dosed via oral gavage at 1, 3 and 10 mg/kg once daily for 15 days. Tap water and a diet of rodent chow were provided to the animals ad libitum.
Blood samples were collected on Day 1 and Day 15. Approximately 0.25 mL of blood was collected from each animal via jugular cannula on Day 1 and from tail vein on Day 15. Blood samples were taken 1, 2, 4, 8, 12 and 24 hr postdose. Each blood sample was collected into tubes containing lithium heparin and kept on wet ice pending centrifugation (max 2 hrs). Samples were centrifuged under refrigeration (2°−8° C. at 3000 g) for 10 minutes. Plasma was transferred into a pre-labeled tube (approximately 125 μL) placed on dry ice and stored frozen at −70° C. until analysis.
50 μL of plasma was extracted with 250 μL of acetonitrile and the plasma concentration of Compound 102 was determined by an LC-MS/MS method. The plasma concentration time data were analyzed by a non-compartmental pharmacokinetic method using WinNonlin. The results for pharmacokinetics (Mean±SD, n=5) is shown in Table 3 (Day 1) and Table 4 (Day 15).

Sprague-Dawley rats = assay: 14-day oral toxicity study in Sprague Dawley rats; assay type: in vivo, rat
Procedure: A Sprague Dawley Rat model was used to study oral toxicity and toxicokinetics. Animals were assigned to groups by a stratified randomization scheme designed to achieve similar group mean body weights and the groups were randomly assigned to a dosing to provide control of bias.
All animals were dosed via oral gavage once daily for 14 days. The animals were evaluated for changes in clinical signs (mortality/morbidity observations, twice daily), cage side observations (general appearance and behavior), food consumption (quantitatively measured by weighing), body weights, clinical pathology indices including serum chemistry, hematology, coagulation and urinalysis, and other parameters. Blood samples were collected for toxicokinetics analysis from Groups 6-10 at various time points on Days 1 and 14 (Group 6 4 hours post dose; Groups 7-10 at 1, 4 and 12 hours or 2, 8 and 24 hours). The animals were fasted for at least 8 hours prior to blood collections for serum chemistry and urine collection. Serum chemistry parameters tested included alanine aminotransferase, total protein, aspartate aminotransferase, albumin, alkaline phosphatase, globulin, gamma-glutamyl-transferase, albumin/globulin ratio, lactate dehydrogenase, glucose, total bilirubin, cholesterol, urea nitrogen, triglycerides, creatinine, sodium, calcium, potassium, phosphorus and chloride. Hematology parameters analyzed included red blood cell count, reticulocyte count, hemoglobin concentration, red blood cell distribution width, mean corpuscular volume, mean platelet volume, mean corpuscular hemoglobin concentration, white blood cell count and differentials and mean corpuscular hemoglobin. Urinalysis parameters included color/character, ketones, specific gravity, bilirubin, pH, occult blood, protein, glucose and microscopics. Main study animals were euthanized on Day 15. At termination, a full necropsy was conducted and all tissues were collected, preserved, processes and examined microscopically from Groups 1 and 5, and target organs (liver and kidney) from Groups 2-4, by a veterinary pathologist certified by the American College of Veterinary Pathologists.
Control vehicle included Peg-400 (Sigma P-3265), Tween 80 (Sigma P-8074) and PVP-K30 (polyvinyl pyrrolidone or povidone K-30, Spectrum PN P1454) at a ratio of 90:5:5, w/w/w. Appropriate amounts of Compound 102 were added to the control vehicle to produce homogeneous dosing solutions/suspensions.

[2] = female, 1 mg/kg, oral gavage once daily, Day 15, 1 mg/kg, Female
[3] = female, 1 mg/kg, oral gavage, Day 1, 1 mg/kg, Female
[4] = female, 3 mg/kg, oral gavage once daily, Day 15, 3 mg/kg, Female, n = 3
[5] = female, 3 mg/kg, oral gavage, Day 1, 3 mg/kg, Female
[6] = female, 10 mg/kg, oral gavage once daily, Day 15, 10 mg/kg, Female, n = 4
[7] = female, 10 mg/kg, oral gavage, Day 1, 10 mg/kg, Female
[8] = male, 1 mg/kg, oral gavage once daily, Day 15, 1 mg/kg, Male, n = 4
[9] = male, 1 mg/kg, oral gavage, Day 1, 1 mg/kg, Male
[10] = male, 3 mg/kg, oral gavage once daily, Day 15, 3 mg/kg, Male
[11] = male, 3 mg/kg, oral gavage, Day 1, 3 mg/kg, Male
[12] = male, 10 mg/kg, oral gavage once daily, Day 15, 10 mg/kg, Male, n = 2
[13] = male, 10 mg/kg, oral gavage, Day 1, 10 mg/kg, Male

For `N#Cc1ccc(N2CCC[C@@H]2[C@@H](O)C(F)(F)F)cc1C(F)(F)F` [Compound 102, R,R-4-(2-(1-Hydroxyl-2,2,2-trifluoroethyl)-pyrrolidinyl)-2-trifluoromethyl-benzonitrile], the “dose dependence of systemic exposure” value ([1]; 1, 3 and 10 mg/kg dose levels) was “dose proportional increase of systemic exposure”, the “sex difference of systemic exposure” value ([1]; Day 1 and Day 15) was “Female rats showed higher systemic exposure than male rats” and the AUC(0-inf) [1, 2] was 443 ng·h/mL. It also gave a Cmax [1, 2] of 45 ng/mL, a Tmax [1, 2] of 1.8 h and a half-life [1, 2] of 4.6 h. It also gave an AUC [1, 2] of 428 ng·h/mL, an AUC(0-inf) [1, 3] of 436 ng·h/mL and a Cmax [1, 3] of 41 ng/mL. The Tmax [1, 3] was 1.4 h, the half-life [1, 3] was 5.4 h and the AUC [1, 3] was 413 ng·h/mL. For the same molecule, the AUC(0-inf) [1, 4] was 1160 ng·h/mL, the Cmax [1, 4] was 139 ng/mL and the Tmax [1, 4] was 1.8 h. For the same molecule, the half-life [1, 4] was 3.7 h, the AUC [1, 4] was 1000 ng·h/mL and the AUC(0-inf) [1, 5] was 1260 ng·h/mL. For the same molecule, the Cmax [1, 5] was 129 ng/mL, the Tmax [1, 5] was 2.6 h and the half-life [1, 5] was 4.8 h. It also gave an AUC [1, 5] of 1210 ng·h/mL, an AUC(0-inf) [1, 6] of 4540 ng·h/mL and a Cmax [1, 6] of 389 ng/mL. It also gave a Tmax [1, 6] of 2 h, a half-life [1, 6] of 5.4 h and an AUC [1, 6] of 4280 ng·h/mL. It also gave an AUC(0-inf) [1, 7] of 4210 ng·h/mL, a Cmax [1, 7] of 366 ng/mL and a Tmax [1, 7] of 1.4 h. It also gave a half-life [1, 7] of 5.6 h, an AUC [1, 7] of 3960 ng·h/mL and an AUC(0-inf) [1, 8] of 297 ng·h/mL. The Cmax [1, 8] was 52 ng/mL, the Tmax [1, 8] was 1.3 h and the half-life [1, 8] was 4.6 h. For the same molecule, the AUC [1, 8] was 288 ng·h/mL, the AUC(0-inf) [1, 9] was 1110 ng·h/mL and the Cmax [1, 9] was 14 ng/mL. It also gave a Tmax [1, 9] of 1.2 h, a half-life [1, 9] of 5.2 h and an AUC [1, 9] of 104 ng·h/mL. It also gave an AUC(0-inf) [1, 10] of 893 ng·h/mL, a Cmax [1, 10] of 133 ng/mL and a Tmax [1, 10] of 1.2 h. For the same molecule, the half-life [1, 10] was 4.1 h, the AUC [1, 10] was 876 ng·h/mL and the AUC(0-inf) [1, 11] was 341 ng·h/mL. The Cmax [1, 11] was 51 ng/mL, the Tmax [1, 11] was 1.2 h and the half-life [1, 11] was 4.6 h. For the same molecule, the AUC [1, 11] was 318 ng·h/mL, the AUC(0-inf) [1, 12] was 2670 ng·h/mL and the Cmax [1, 12] was 345 ng/mL. It also gave a Tmax [1, 12] of 1.5 h, a half-life [1, 12] of 3.9 h and an AUC [1, 12] of 2620 ng·h/mL. For the same molecule, the AUC(0-inf) [1, 13] was 1300 ng·h/mL, the Cmax [1, 13] was 176 ng/mL and the Tmax [1, 13] was 1.2 h. For the same molecule, the half-life [1, 13] was 3.5 h, the AUC [1, 13] was 1290 ng·h/mL and the “morbidity / early death” value (Sprague-Dawley rats; 10, 100, 300 or 700 mg/kg/day, 14 days) was “not associated with test article-related morbidity or early death”. For the same molecule, the “macroscopic or microscopic changes (postmortem)” value (Sprague-Dawley rats; 10-700 mg/kg/day) was “no macroscopic or microscopic changes”, the urinalysis parameters (Sprague-Dawley rats; 10-700 mg/kg/day) was “no alterations” and the liver weight (Sprague-Dawley rats; both sexes, not correlated with hepatocellular size or liver pathology) was “Dose-dependent liver weight increases”. The food consumption (Sprague-Dawley rats; female animals, all dose levels) was “statistically significant increase in food consumption”, the “alkaline phosphatase values and phosphorus concentrations” value (Sprague-Dawley rats; female rats dosed at ≥10 mg/kg/day) was “minimally higher” and the “reticulocyte counts and red cell distribution width” value (Sprague-Dawley rats; female rats ≥10 mg/kg/day) was “higher reticulocyte counts and red cell distribution width”. The platelet counts (Sprague-Dawley rats; females ≥100 mg/kg/day, males 10 and 700 mg/kg/day) was “increased with statistical significance”, the prothrombin time (Sprague-Dawley rats; male and female animals, 300 and 700 mg/kg/day) was “minimal prolongation” and the body weight gain (Sprague-Dawley rats; male and female animals, versus control) was “increased weight gain compared to control animals”. The triglyceride concentrations (Sprague-Dawley rats; male rats ≥100 mg/kg/day, female rats ≥300 mg/kg/day) was “minimally lower”, the potassium levels (Sprague-Dawley rats; male rats ≥300 mg/kg/day, female rats ≥100 mg/kg/day) was “minimally higher” and the clinical observations (Sprague-Dawley rats; particularly female animals at ≥100 mg/kg/day) was “increased incidence and frequency in rough hair coat and nasal discharge”.
